We go through two compounds from patent US7759389B2, “Chroman derivatives and uses thereof” (Roche Palo Alto LLC, priority 2004, dated 2010).

SMILES strings stand for the structures. Where a name gives a salt, the structure may show the parent alone.

Data set [1] deals with T1, recombinant human 5-HT6 receptor (Homo sapiens, UniProt P50406).
T1 construct: expressed in transfected cells; host or cells: HEK293
The experiment in a line: Radioligand binding, competition for [3H]LSD in HEK293 cell membranes. As to conditions: [3H]LSD displacement, pH 7.4, 37° C., 75 min, read-out: pKi for 5-HT6 (converted). The method, then: (§1) The binding activity of compounds of this invention in vitro was determined as follows. Duplicate determinations of 5-HT6 ligand affinity were made by competing for binding of [^3H]LSD in cell membranes derived from HEK293 cells stably expressing recombinant human 5-HT6 receptor. Duplicate determinations of 5-HT2A ligand affinity were made by competing for binding of [^3H]Ketanserin (3-(2-(4-(4-fluorobenzoyl)piperidinol)ethyl)-2,4(1H,3H)-quinazolinedione) in cell membranes derived from CHO-K1 cells stably expressing recombinant human 5-HT2A receptor. Membranes were prepared from HEK 293 cell lines by the method described by Monsma et al., Molecular Pharmacology, Vol. 43 pp. 320-327 (1993), and from CHO-K1 cell lines as described by Bonhaus et al., Br J Pharmacol. June; 115(4):622-8 (1995).
(§2) For estimation of affinity at the 5-HT6 receptor, all determinations were made in assay buffer containing 50 mM Tris-HCl, 10 mM MgSO4, 0.5 mM EDTA, 1 mM ascorbic acid, pH 7.4 at 37° C., in a 250 microliter reaction volume. […]
(§3) Assay tubes containing [^3H] […] LSD or [^3H]Ketanserin were determined as radioactive counts per minute using Packard TopCount.
(§4) Displacement of [^3H]LSD or [^3H]Ketanserin from the binding sites was quantified by fitting concentration-binding data to a 4-parameter logistic equation: […]

Data set [2] concerns the target T2, recombinant human 5-HT2A receptor (Homo sapiens, UniProt P28223).
T2 construct: expressed in transfected cells; host or cells: CHO-K1
The experiment in a line: Radioligand binding, competition for [3H]Ketanserin in CHO-K1 cell membranes. Particulars: [3H]Ketanserin displacement, pH 7.4, 32° C., 60 min, read-out: pKi for 5-HT2A (converted). The method, then: as §1, §2, §3, §4

T2 sequence (P28223 whole entry): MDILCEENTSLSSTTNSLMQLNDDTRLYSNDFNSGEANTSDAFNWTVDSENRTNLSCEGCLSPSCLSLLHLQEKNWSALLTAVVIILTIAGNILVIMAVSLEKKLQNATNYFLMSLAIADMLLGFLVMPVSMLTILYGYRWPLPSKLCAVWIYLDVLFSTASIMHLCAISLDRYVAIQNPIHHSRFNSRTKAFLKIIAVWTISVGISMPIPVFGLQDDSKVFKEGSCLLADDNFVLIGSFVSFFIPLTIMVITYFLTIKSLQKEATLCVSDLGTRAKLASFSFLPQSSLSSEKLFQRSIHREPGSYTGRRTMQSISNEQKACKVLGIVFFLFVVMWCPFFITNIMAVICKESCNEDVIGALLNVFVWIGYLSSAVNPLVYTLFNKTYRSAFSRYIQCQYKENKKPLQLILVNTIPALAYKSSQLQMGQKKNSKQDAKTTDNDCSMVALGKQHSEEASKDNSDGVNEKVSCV
T1 sequence (P50406 whole entry): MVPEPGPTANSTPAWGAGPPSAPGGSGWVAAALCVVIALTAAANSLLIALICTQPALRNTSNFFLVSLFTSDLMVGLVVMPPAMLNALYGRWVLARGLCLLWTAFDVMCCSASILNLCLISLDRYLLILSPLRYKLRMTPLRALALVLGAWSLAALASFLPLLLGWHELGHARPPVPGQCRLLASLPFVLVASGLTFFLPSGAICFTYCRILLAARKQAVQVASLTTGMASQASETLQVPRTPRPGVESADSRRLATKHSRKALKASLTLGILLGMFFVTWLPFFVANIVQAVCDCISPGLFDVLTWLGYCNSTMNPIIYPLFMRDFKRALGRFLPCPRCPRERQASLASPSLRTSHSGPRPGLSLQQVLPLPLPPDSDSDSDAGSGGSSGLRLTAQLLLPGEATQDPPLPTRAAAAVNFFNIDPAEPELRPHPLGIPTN

On to `NCC1CCOc2cc(S(=O)(=O)c3ccccc3)ccc21` (stereo not drawn) [C-(7-Benzenesulfonyl-chroman-4-yl)-methylamine], for which the Ki was roughly 0.000724 µM in data set [1] and roughly 0.0204 µM in data set [2].
In general, melting point refers to the temperature, or range, at which the solid turns liquid. In turn, `CNCC1CCOc2cc(S(=O)(=O)c3ccccc3)ccc21` (stereo not drawn) (as salt: HCl) showed a melting point of 158.1 to 159.8 °C.
